Experimental data taken from PubChem BioAssay AID330 (DTP/NCI, 2004).
Where “and” joins values, the source holds several entries; their conditions need not be identical. Equal entries are not always repeated. Toxic doses and inconclusive results are not listed.

Test system: P388 leukemia ip, CD2F1 mice, survival T/C
Experiment: NCI In Vivo Anticancer Drug Screen. Data for tumor model P388 Leukemia (intraperitoneal) in CD2F1 (CDF1) mice
Conditions: endpoint: median survival time, higher = longer survival
Summary of the method: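 Mice carrying the transplanted tumor received test compound or vehicle. Survival was recorded in each group, and the value is the treated-group measurement divided by that of the vehicle-treated control group.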

With `COc1cc([C@@H]2c3cc4c(cc3[C@@H](OC3OC5COC(C)OC5C(O)C3O)[C@H]3COC(=O)[C@H]23)OCO4)cc(OC)c1O` (stereo partly specified) the T/C (dose: 1.0 mg/kg/injection, schedule: Q01DX009 (ip), vehicle: saline) was 181 % of control, the T/C (dose: 2.0 mg/kg/injection, schedule: Q01DX009 (ip), vehicle: saline) was 183 % of control and 217 % of control and the T/C (dose: 4.0 mg/kg/injection, schedule: Q01DX001 (ip), vehicle: saline with Tween-80) was 153 % of control. For the same molecule, the T/C (dose: 4.0 mg/kg/injection, schedule: Q01DX009 (ip), vehicle: saline) was 241 % of control and 300 % of control, the T/C (dose: 5.0 mg/kg/injection, schedule: Q04DX003 (ip), vehicle: saline with Tween-80) was 122 % of control and the T/C (dose: 6.24 mg/kg/injection, schedule: Q04DX003 (ip), vehicle: water) was 177 % of control. The T/C (dose: 6.48 mg/kg/injection, schedule: Q04DX003 (ip), vehicle: water) was 178 % of control and 219 % of control, the T/C (dose: 7.78 mg/kg/injection, schedule: Q04DX003 (ip), vehicle: water) was 212 % of control and the T/C (dose: 8.0 mg/kg/injection, schedule: Q01DX001 (ip), vehicle: saline with Tween-80) was 164 % of control. For the same molecule, the T/C (dose: 8.0 mg/kg/injection, schedule: Q01DX001 (ip), vehicle: saline) was 180 % of control, the T/C (dose: 8.0 mg/kg/injection, schedule: Q01DX001 (ip), vehicle: water) was 162 % of control and 168 % of control and the T/C (dose: 8.0 mg/kg/injection, schedule: Q08DX002 (ip), vehicle: saline) was 207 % of control. The T/C (dose: 10.0 mg/kg/injection, schedule: Q04DX002 (ip), vehicle: suspension in saline) was 162 % of control, the T/C (dose: 10.0 mg/kg/injection, schedule: Q04DX003 (ip), vehicle: saline with Tween-80) was 174 % of control and 190 % of control and the T/C (dose: 10.4 mg/kg/injection, schedule: Q04DX003 (ip), vehicle: clinical formulation) was 247 % of control. For the same molecule, the T/C (dose: 10.4 mg/kg/injection, schedule: Q04DX003 (ip), vehicle: water) was 213 % of control, the T/C (dose: 10.8 mg/kg/injection, schedule: Q04DX002 (ip), vehicle: water) was 243 % of control and the T/C (dose: 10.8 mg/kg/injection, schedule: Q04DX003 (ip), vehicle: water) was 211 % of control and 281 % of control. For the same molecule, the T/C (dose: 12.0 mg/kg/injection, schedule: Q04DX003 (ip), vehicle: saline) was 211 % of control, the T/C (dose: 13.0 mg/kg/injection, schedule: Q04DX002 (ip), vehicle: Klucel (hydroxypropylcellulose) (HPC)) was 240 % of control and the T/C (dose: 13.0 mg/kg/injection, schedule: Q04DX003 (ip), vehicle: water) was 234 % of control. For the same molecule, the T/C (dose: 16.0 mg/kg/injection, schedule: Q08DX002 (ip), vehicle: saline) was 240 % of control, the T/C (dose: 17.3 mg/kg/injection, schedule: Q04DX003 (ip), vehicle: clinical formulation) was 276 % of control and the T/C (dose: 17.3 mg/kg/injection, schedule: Q04DX003 (ip), vehicle: water) was 272 % of control. For the same molecule, the T/C (dose: 18.0 mg/kg/injection, schedule: Q04DX002 (ip), vehicle: water) was 264 % of control, the T/C (dose: 18.0 mg/kg/injection, schedule: Q04DX003 (ip), vehicle: Klucel (hydroxypropylcellulose) (HPC)) was 320 % of control and 576 % of control and the T/C (dose: 20.0 mg/kg/injection, schedule: Q04DX002 (ip), vehicle: suspension in saline) was 167 % of control. The T/C (dose: 20.0 mg/kg/injection, schedule: Q04DX003 (ip), vehicle: saline with Tween-80) was 183 % of control and 190 % of control, the T/C (dose: 21.6 mg/kg/injection, schedule: Q04DX002 (ip), vehicle: Klucel (hydroxypropylcellulose) (HPC)) was 280 % of control and the T/C (dose: 21.6 mg/kg/injection, schedule: Q04DX002 (ip), vehicle: water) was 235 % of control. For the same molecule, the T/C (dose: 21.6 mg/kg/injection, schedule: Q04DX003 (ip), vehicle: water) was 398 % of control, the T/C (dose: 27.0 mg/kg/injection, schedule: Q04DX003 (ip), vehicle: Klucel (hydroxypropylcellulose) (HPC)) was 436 % of control and 567 % of control and the T/C (dose: 28.8 mg/kg/injection, schedule: Q04DX003 (ip), vehicle: clinical formulation) was 419 % of control. The T/C (dose: 28.8 mg/kg/injection, schedule: Q04DX003 (ip), vehicle: water) was 304 % of control, the T/C (dose: 30.0 mg/kg/injection, schedule: Q04DX002 (ip), vehicle: water) was 441 % of control and the T/C (dose: 30.0 mg/kg/injection, schedule: Q04DX003 (ip), vehicle: water) was 333 % of control and 358 % of control. For the same molecule, the T/C (dose: 32.0 mg/kg/injection, schedule: Q08DX002 (ip), vehicle: saline) was 285 % of control, the T/C (dose: 36.0 mg/kg/injection, schedule: Q04DX002 (ip), vehicle: Klucel (hydroxypropylcellulose) (HPC)) was 290 % of control and the T/C (dose: 36.0 mg/kg/injection, schedule: Q04DX002 (ip), vehicle: water) was 445 % of control. The T/C (dose: 36.0 mg/kg/injection, schedule: Q04DX003 (ip), vehicle: water) was 416 % of control, the T/C (dose: 40.0 mg/kg/injection, schedule: Q04DX002 (ip), vehicle: suspension in saline) was 218 % of control and the T/C (dose: 40.0 mg/kg/injection, schedule: Q04DX003 (ip), vehicle: Klucel (hydroxypropylcellulose) (HPC)) was 436 % of control and 576 % of control. For the same molecule, the T/C (dose: 40.0 mg/kg/injection, schedule: Q04DX003 (ip), vehicle: saline with Tween-80) was 223 % of control and 257 % of control, the T/C (dose: 50.0 mg/kg/injection, schedule: Q04DX002 (ip), vehicle: water) was 372 % of control and the T/C (dose: 60.0 mg/kg/injection, schedule: Q04DX002 (ip), vehicle: water) was 354 % of control. The T/C (dose: 60.0 mg/kg/injection, schedule: Q04DX003 (ip), vehicle: Klucel (hydroxypropylcellulose) (HPC)) was 576 % of control, the T/C (dose: 60.0 mg/kg/injection, schedule: Q04DX003 (ip), vehicle: water) was 416 % of control and the T/C (dose: 64.0 mg/kg/injection, schedule: Q01DX005 (ip), vehicle: saline) was 105 % of control and 86 % of control and 88 % of control. For the same molecule, the T/C (dose: 64.0 mg/kg/injection, schedule: Q08DX002 (ip), vehicle: saline) was 247 % of control, the T/C (dose: 83.3 mg/kg/injection, schedule: Q04DX002 (ip), vehicle: water) was 441 % of control and the T/C (dose: 96.0 mg/kg/injection, schedule: Q01DX001 (ip), vehicle: water) was 238 % of control and 329 % of control. The T/C (dose: 100.0 mg/kg/injection, schedule: Q04DX002 (ip), vehicle: Klucel (hydroxypropylcellulose) (HPC)) was 89 % of control, the T/C (dose: 100.0 mg/kg/injection, schedule: Q04DX002 (ip), vehicle: water) was 445 % of control and the T/C (dose: 128.0 mg/kg/injection, schedule: Q01DX001 (ip), vehicle: saline with Tween-80) was 77 % of control and 89 % of control. The T/C (dose: 128.0 mg/kg/injection, schedule: Q08DX002 (ip), vehicle: saline) was 98 % of control.
In the case of `CC(C)=C[C@@H]1c2c(c3ccccc3n(C)c2=O)O[C@H]2c3c(c4ccccc4n(C)c3=O)OC(C)(C)[C@@H]12`, the T/C (dose: 50.0 mg/kg/injection, schedule: Q01DX005 (ip), vehicle: saline with Tween-80) is reported as 99 % of control, the T/C (dose: 100.0 mg/kg/injection, schedule: Q01DX005 (ip), vehicle: saline with Tween-80) is reported as 100 % of control and the T/C (dose: 200.0 mg/kg/injection, schedule: Q01DX005 (ip), vehicle: saline with Tween-80) is reported as 100 % of control.
For `COc1ccc2c(NCCCCCCCCNc3c4ccc(Cl)cc4nc4cc(OC)ccc34)c3ccc(Cl)cc3nc2c1`, the T/C (dose: 0.63 mg/kg/injection, schedule: Q01DX009 (ip), vehicle: other) was 117 % of control, the T/C (dose: 1.25 mg/kg/injection, schedule: Q01DX009 (ip), vehicle: other) was 100 % of control and the T/C (dose: 2.5 mg/kg/injection, schedule: Q01DX009 (ip), vehicle: other) was 96 % of control. The T/C (dose: 5.0 mg/kg/injection, schedule: Q01DX009 (ip), vehicle: other) was 105 % of control, the T/C (dose: 10.0 mg/kg/injection, schedule: Q01DX009 (ip), vehicle: other) was 100 % of control and the T/C (dose: 20.0 mg/kg/injection, schedule: Q01DX009 (ip), vehicle: other) was 88 % of control.
`CN(C)c1ccc2c(Cl)cc(Cl)nc2c1` was tested, and the T/C (dose: 12.5 mg/kg/injection, schedule: Q01DX009 (ip), vehicle: Klucel (hydroxypropylcellulose) (HPC)) was 109 % of control, the T/C (dose: 25.0 mg/kg/injection, schedule: Q01DX009 (ip), vehicle: Klucel (hydroxypropylcellulose) (HPC)) was 109 % of control and the T/C (dose: 50.0 mg/kg/injection, schedule: Q01DX009 (ip), vehicle: Klucel (hydroxypropylcellulose) (HPC)) was 107 % of control. For the same molecule, the T/C (dose: 100.0 mg/kg/injection, schedule: Q01DX009 (ip), vehicle: Klucel (hydroxypropylcellulose) (HPC)) was 106 % of control, the T/C (dose: 200.0 mg/kg/injection, schedule: Q01DX009 (ip), vehicle: Klucel (hydroxypropylcellulose) (HPC)) was 103 % of control and the T/C (dose: 400.0 mg/kg/injection, schedule: Q01DX009 (ip), vehicle: Klucel (hydroxypropylcellulose) (HPC)) was 104 % of control.
In the case of `N#CCSCC(NC(=O)c1ccccc1)C(=O)O` (stereo unspecified), the T/C (dose: 50.0 mg/kg/injection, schedule: Q01DX005 (ip), vehicle: saline) is reported as 100 % of control, the T/C (dose: 100.0 mg/kg/injection, schedule: Q01DX005 (ip), vehicle: saline) is reported as 87 % of control and the T/C (dose: 200.0 mg/kg/injection, schedule: Q01DX005 (ip), vehicle: saline) is reported as 97 % of control.
With `CC(C)CCC1=CC(=O)c2c(O)ccc(O)c2C1=O` the T/C (dose: 2.5 mg/kg/injection, schedule: Q04DX002 (ip), vehicle: DMSO) was 97 % of control, the T/C (dose: 5.0 mg/kg/injection, schedule: Q04DX002 (ip), vehicle: DMSO) was 97 % of control and the T/C (dose: 10.0 mg/kg/injection, schedule: Q04DX002 (ip), vehicle: DMSO) was 95 % of control.
